Each structure is given as a SMILES string. Active and inactive are the calls of the source. The calls are words filed in the database; no cut-off is given here.

The first experiment concerns HSC-2. The experiment is described as follows: Antiproliferative activity against human HSC2 cells assessed as reduction in cell viability at 10 uM measured after 48 hrs by MTT assay relative to control. Type of experiment: functional. For orientation: Tetrazolium dyes change colour on reduction, which living cells bring about.
In the case of `Nc1ncnc2c1ncn2[C@@H]1O[C@H](CN(CC[C@H](N)C(=O)O)Cc2ccc3ccccc3c2)[C@@H](O)[C@H]1O`, the Activity was 20%.

The test system of the next experiment is HSC-2. The experiment is described as follows: Antiproliferative activity against human HSC2 cells assessed as reduction in cell viability at 50 uM measured after 48 hrs by MTT assay relative to control. Type of experiment: functional.
With `Nc1ncnc2c1ncn2[C@@H]1O[C@H](CN(CC[C@H](N)C(=O)O)Cc2ccc3ccccc3c2)[C@@H](O)[C@H]1O`, the Activity came out at 21%.

In the next experiment the test system is HSC-2. The experiment is described as follows: Antiproliferative activity against human HSC2 cells assessed as reduction in cell viability at 1 to 100 uM measured up to 72 hrs by MTT assay. Type of experiment: functional, cell-based.
For the molecule `Nc1ncnc2c1ncn2[C@@H]1O[C@H](CN(CCC[C@H](N)C(=O)O)Cc2ccc3ccccc3c2)[C@@H](O)[C@H]1O`, the result was inactive. In the case of `NC(=O)c1cccc(CCN(CCC[C@H](N)C(=O)O)C[C@H]2O[C@@H](n3cnc4c(N)ncnc43)[C@H](O)[C@@H]2O)c1`, the result was inactive.

`NC(=O)c1cccc(CN(CC[C@H](N)C(=O)O)C[C@H]2O[C@@H](n3cnc4c(N)ncnc43)[C@H](O)[C@@H]2O)c1`: the outcome was inactive.

The next experiment relates to HSC-2. The experiment is described as follows: Antiproliferative activity against human HSC2 cells assessed as reduction in cell viability at 100 uM measured after 48 hrs by MTT assay relative to control. The experiment is classed as functional.
Consider `Nc1ncnc2c1ncn2[C@@H]1O[C@H](CN(CC[C@H](N)C(=O)O)Cc2ccc3ccccc3c2)[C@@H](O)[C@H]1O`, for which the Activity amounted to 27%.

Another experiment has as its system HSC-2. The experiment is described as follows: Antiproliferative activity against human HSC2 cells assessed as reduction in cell viability at 100 uM measured after 72 hrs by MTT assay relative to control. The experiment is classed as functional.
On to `Nc1ncnc2c1ncn2[C@@H]1O[C@H](CN(CC[C@H](N)C(=O)O)Cc2ccc3ccccc3c2)[C@@H](O)[C@H]1O`, for which the Activity was 44%.

In the next experiment the target is T1, Nicotinamide N-methyltransferase (Homo sapiens, UniProt P40261).
T1 sequence (P40261 whole entry): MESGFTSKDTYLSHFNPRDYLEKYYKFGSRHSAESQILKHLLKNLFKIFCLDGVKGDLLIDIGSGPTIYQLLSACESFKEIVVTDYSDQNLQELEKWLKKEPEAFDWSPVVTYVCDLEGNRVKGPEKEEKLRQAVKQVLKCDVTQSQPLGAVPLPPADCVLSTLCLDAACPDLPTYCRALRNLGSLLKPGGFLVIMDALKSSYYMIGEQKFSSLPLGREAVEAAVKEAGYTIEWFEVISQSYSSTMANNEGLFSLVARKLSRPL
The experiment is described as follows: Inhibition of wild-type human full length NNMT expressed in Escherichia coli BL21(DE3) cells assessed as reduction in 1-methyl-nicotinamide formation pre-incubated for 10 mins followed by AdoMet and nicotinamide addition measured after 30 mins by UHP-HILIC/Q-TOF-MS analysis.
`NC(=O)CCCCN(Cc1cccc(C(=O)O)c1)C[C@H]1O[C@@H](n2cnc3c(N)ncnc32)[C@H](O)[C@@H]1O`: the half-inhibitory concentration (IC50) (in general, the midpoint of a concentration-inhibition curve) is more than 250 µM. For `COC(=O)c1cccc(CN(CCCCC(N)=O)C[C@H]2O[C@@H](n3cnc4c(N)ncnc43)[C@H](O)[C@@H]2O)c1`, the IC50 is more than 250 µM.

Consider `COC(=O)c1cccc(CN(C[C@H]2O[C@@H](n3cnc4c(N)ncnc43)[C@H](O)[C@@H]2O)C(C)C)c1`, for which the IC50 was more than 250 µM. As for `NC(=O)c1cccc(CN(CCCCC(=O)O)C[C@H]2O[C@@H](n3cnc4c(N)ncnc43)[C@H](O)[C@@H]2O)c1`, the 50% inhibitory concentration (IC50) is more than 250 µM.

Take `CC(C)N(Cc1cccc(C(N)=O)c1)C[C@H]1O[C@@H](n2cnc3c(N)ncnc32)[C@H](O)[C@@H]1O`: the IC50 is more than 250 µM.

Turning to `NC(=O)CCCN(Cc1ccc2ccccc2c1)C[C@H]1O[C@@H](n2cnc3c(N)ncnc32)[C@H](O)[C@@H]1O`, the half-inhibitory concentration (IC50) was determined as 111 µM. Turning to `Nc1ncnc2c1ncn2[C@@H]1O[C@H](CN(CCCC(=O)O)Cc2ccc3ccccc3c2)[C@@H](O)[C@H]1O`, the half-inhibitory concentration (IC50) is more than 250 µM. On the same count and under the same terms, the result for `Nc1ncnc2c1ncn2[C@@H]1O[C@H](CN(CCC[C@H](N)C(=O)O)Cc2ccc3ccccc3c2)[C@@H](O)[C@H]1O` reads more than 250 µM; that for `NC(=O)CCCCN(Cc1cccc(C(N)=O)c1)C[C@H]1O[C@@H](n2cnc3c(N)ncnc32)[C@H](O)[C@@H]1O`, more than 250 µM. The same measure, in the same setting: the result for `NC(=O)c1cccc(CCN(CCC[C@H](N)C(=O)O)C[C@H]2O[C@@H](n3cnc4c(N)ncnc43)[C@H](O)[C@@H]2O)c1` reads 4.36 µM; that for `COC(=O)c1cccc(CN(CCCCC(=O)O)C[C@H]2O[C@@H](n3cnc4c(N)ncnc43)[C@H](O)[C@@H]2O)c1`, more than 250 µM. As for `Nc1ncnc2c1ncn2[C@@H]1O[C@H](CSCC[C@H](N)C(=O)O)[C@@H](O)[C@H]1O` [S-ADENOSYLHOMOCYSTEINE], the IC50 was 35.3 µM. Same read-out and setting: to `NC(=O)c1cccc(CN(CCCC(=O)O)C[C@H]2O[C@@H](n3cnc4c(N)ncnc43)[C@H](O)[C@@H]2O)c1` belongs more than 250 µM; to `Nc1ncnc2c1ncn2[C@@H]1O[C@H](CN(CCCCC(=O)O)Cc2ccc3ccccc3c2)[C@@H](O)[C@H]1O`, more than 250 µM; to `COC(=O)c1cccc(CN(CCCC(=O)O)C[C@H]2O[C@@H](n3cnc4c(N)ncnc43)[C@H](O)[C@@H]2O)c1`, more than 250 µM. `NC(=O)CCCN(Cc1cccc(C(N)=O)c1)C[C@H]1O[C@@H](n2cnc3c(N)ncnc32)[C@H](O)[C@@H]1O`: the IC50 was more than 250 µM. Still for that read-out and setting: the result for `Nc1ncnc2c1ncn2[C@@H]1O[C@H](CN(CCCCC(=O)O)Cc2cccc(C(=O)O)c2)[C@@H](O)[C@H]1O` reads more than 250 µM; that for `Nc1ncnc2c1ncn2[C@@H]1O[C@H](C[C@@H](N)CC[C@H](N)C(=O)O)[C@@H](O)[C@H]1O` [SINEFUNGIN], 12.5 µM; that for `CC(C)N(Cc1ccc2ccccc2c1)C[C@H]1O[C@@H](n2cnc3c(N)ncnc32)[C@H](O)[C@@H]1O`, 130 µM. `Nc1ncnc2c1ncn2[C@@H]1O[C@H](CN(CCCC(=O)O)Cc2cccc(C(=O)O)c2)[C@@H](O)[C@H]1O`: the concentration for half-maximal inhibition (IC50) was more than 250 µM.

Turning to `CC(C)N(Cc1cccc(C(=O)O)c1)C[C@H]1O[C@@H](n2cnc3c(N)ncnc32)[C@H](O)[C@@H]1O`, the IC50 is more than 250 µM. Take `NC(=O)CCCN(Cc1cccc(C(=O)O)c1)C[C@H]1O[C@@H](n2cnc3c(N)ncnc32)[C@H](O)[C@@H]1O`: the half-maximal inhibitory concentration (IC50) is more than 250 µM.

For the molecule `COC(=O)c1cccc(CN(CCCC(N)=O)C[C@H]2O[C@@H](n3cnc4c(N)ncnc43)[C@H](O)[C@@H]2O)c1`, the 50% inhibitory concentration (IC50) was more than 250 µM.
